{"source": "patent US20220330548A1", "about": "“Peptides with Phytosanitary Activities” (Universita' Degli Studi Di Padova, priority 2021, published 2022)", "key": {"Plasmopara viticola": {"tested_on": "Plasmopara viticola", "test": "Infection by P. viticola on vine leaf discs", "format": "in vivo, Plasmopara viticola on vine leaf discs (cv. Glera)", "settings": "peptide 50 μM, 12 days after inoculation", "experimental": "Infection tests were performed on vine leaf disks (cv. Glera) of 1 cm in diameter. Twenty leaf discs obtained from randomly collected leaves from different plants were placed with the lower side facing upwards on moistened sterile paper placed in Petri dishes (15 cm diameter). Approximately 0.1 mL of each aqueous solution containing the peptide (50 μM) was distributed on each leaf disc. Aqueous suspensions of P. viticola sporangia, collected from infected vine plants, were diluted to obtain 3-5×10^5 sporangia/mL and distributed on the leaf discs. The plates containing the leaf discs were incubated in the dark at room temperature (22-23° C.). The incidence was calculated 12 days after inoculation as the ratio of the number of sporulating discs to the total number of discs inoculated. Control plates contained water-treated leaf discs. Two or three plates were used for each treatment. The data obtained were statistically analysed by applying the Anova and Bonferroni-Holmes one-way test."}, "Botrytis cinerea": {"tested_on": "Botrytis cinerea", "format": "cell-based, Botrytis cinerea (strain PM10)"}, "Pyricularia oryzae [1]": {"tested_on": "Pyricularia oryzae", "parameters": "species or system Pyricularia oryzae strain IT10 on barley leaves", "settings": "in vivo"}, "Fusarium graminearum [2]": {"tested_on": "Fusarium graminearum", "format": "cell-based"}, "Pyricularia oryzae [3]": {"tested_on": "Pyricularia oryzae", "format": "cell-based"}, "Fusarium graminearum [4]": {"tested_on": "Fusarium graminearum", "parameters": "species or system Fusarium graminearum on ears of wheat", "settings": "in vivo"}, "Fusarium graminearum [5]": {"tested_on": "Fusarium graminearum", "format": "cell-based, Fusarium graminearum (strain 8/1)"}, "Pyricularia oryzae [6]": {"tested_on": "Pyricularia oryzae", "format": "cell-based, Pyricularia oryzae (strain IT10)"}}, "note": "[ ]: non-standard residue; d: D form. The star is where a group is joined. Octanoyl = CCCCCCCC(=O)*; Aib = CC(C)(N)C(=O)O"}
{"substance": "1-octanoyl-Aib-Gly-Leu-Aib-Gly-Gly-Leu-Aib-Lys(HCl)-Ile-Leu-NH2 (Octanoyl-[Aib]GL[Aib]GGL[Aib]KIL-NH2; also: Lys9 as HCl salt) [SEQ. ID. No. 6]", "values": [{"measurement": "incidence of Plasmopara viticola infection on vine leaf discs", "setting": "Plasmopara viticola", "value": "significantly decreases the P. viticola infection"}]}
{"substance": "1-octanoyl-Aib-Gly-Leu-Aib-Gly-Gly-Leu-Aib-Lys(HCl)-Ile-Lol [SEQ. ID. No. 5]", "values": [{"measurement": "decrease of growth of Botrytis cinerea compared to the untreated control", "setting": "Botrytis cinerea", "value": "at least 95%"}, {"measurement": "incidence of Plasmopara viticola infection on vine leaf discs", "setting": "Plasmopara viticola", "value": "significantly decreases the P. viticola infection"}]}
{"substance": "1-octanoyl-Aib-Lys(HCl)-Leu-Aib-Lys(HCl)-Gly-Leu-Aib-Lys(HCl)-Ile-Lol [SEQ. ID. No. 1]", "values": [{"measurement": "decrease of infected (lesion) area of barley leaves compared to control leaves", "setting": "Pyricularia oryzae [1]", "value": "at least 95%"}, {"measurement": "microscopic observation of Fusarium graminearum after treatment", "setting": "Fusarium graminearum [2]", "value": "germination is inhibited and the cytoplasm is agglutinated"}, {"measurement": "microscopic observation of Pyricularia oryzae spores after treatment", "setting": "Pyricularia oryzae [3]", "value": "germination is inhibited and the cytoplasm is agglutinated"}, {"measurement": "viability of Pyricularia oryzae spores (autofluorescence of agglutinated cytoplasm)", "setting": "Pyricularia oryzae [3]", "value": "the cells are no longer viable"}, {"measurement": "decrease of infection (infected spikelets) in treated ears compared to untreated control ears", "setting": "Fusarium graminearum [4]", "value": "at least 95%"}, {"measurement": "further decrease of infection compared with treatment with PEP4 and PEP4-rink", "setting": "Fusarium graminearum [4]", "value": "10-30%"}, {"measurement": "protection of the ear of wheat against infection caused by Fusarium graminearum", "setting": "Fusarium graminearum [4]", "value": "protects the ear of wheat against infection caused by Fusarium graminearum"}, {"measurement": "protection of the ear of wheat compared with the known peptide PEP4", "setting": "Fusarium graminearum [4]", "value": "greater"}]}
{"substance": "1-octanoyl-Leu-Aib-Lys(HCl)-Ile-Leu-NH2 [SEQ. ID. No. 10]", "values": [{"measurement": "decrease of growth of Botrytis cinerea compared to the untreated control", "setting": "Botrytis cinerea", "value": "at least 95%"}, {"measurement": "decrease of growth of Fusarium graminearum compared to the untreated control", "setting": "Fusarium graminearum [5]", "value": "at least 95%"}, {"measurement": "decrease of growth of Pyricularia oryzae compared to the untreated control", "setting": "Pyricularia oryzae [6]", "value": "at least 95%"}]}
